This is an account of results in patent publication EP4692081A1, “PREPARATION METHOD FOR NAPHTHOISOXAZOLE COMPOUND” (priority 2023, dated 2024).

What all share (assay type): cell-based
The target in one assay is T1, IRAK4 (Homo sapiens, UniProt Q9NWZ3).
T1 construct: expressed in transfected cells; host or cells: K562 IRAK4-HiBiT cells
T1 sequence (Q9NWZ3 1-460): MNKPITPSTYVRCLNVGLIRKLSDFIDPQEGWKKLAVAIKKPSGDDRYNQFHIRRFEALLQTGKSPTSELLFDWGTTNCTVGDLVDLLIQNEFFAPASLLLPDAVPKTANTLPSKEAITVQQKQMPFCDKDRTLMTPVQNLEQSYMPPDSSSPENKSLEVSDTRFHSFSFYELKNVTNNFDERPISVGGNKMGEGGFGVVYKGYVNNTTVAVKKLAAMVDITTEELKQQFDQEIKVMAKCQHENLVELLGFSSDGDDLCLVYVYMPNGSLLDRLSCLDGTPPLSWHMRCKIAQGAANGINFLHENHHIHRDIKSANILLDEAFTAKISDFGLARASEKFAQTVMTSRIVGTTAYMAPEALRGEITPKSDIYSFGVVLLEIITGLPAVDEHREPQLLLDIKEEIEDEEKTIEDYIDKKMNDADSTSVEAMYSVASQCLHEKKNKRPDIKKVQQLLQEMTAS
Kind of assay: Target protein degradation effect in K562 IRAK4-HiBiT cells (Nano-Glo HiBiT luminescence). The note with it: incubated 16 to 18 hours. The procedure:
Objective: In this experiment, the degradation effect of the test compound on the target protein IRAK4 in K562 IRAK4-HiBiT cells was detected.
Cells: K562 IRAK4-HiBiT cells [formula]
Positive control: 1000 nM; negative control: 0.1% DMSO Table 1. Reagents and consumables
• 1. […] Cell seeding • (1) The cell culture medium was discarded, and the cells were washed once with DPBS, digested with trypsin, and counted to prepare a cell suspension of […]. • (2) 25 µL/well of cell suspension was added to the assay plate containing the test compound using Multidrop Combi at medium speed. • (3) The assay plate containing cells was returned to an incubator with 5% CO2 at 37°C and incubated for 16 to 18 hours.
• (1) 25 µL/well of assay reagent (NanoGlo lysis buffer + substrate + LgBit protein) was added to the assay plate using Multidrop Combi at high speed, and the plate was shaken for 10 minutes. • (2) The plate was centrifuged at 2000 rpm for 1 minute to remove air bubbles. • (3) The plate was read on Envision using US Luminescence detection method.
The degradation rate (DR) of the test compound was calculated using the following formula: DR (%) = (RLU vehicle control - RLU compound) / (RLU vehicle control - RLU positive control) * 100%, where the vehicle control served as the blank control. […]
On the technique in general: With HiBiT, luminescence reflects the tagged protein that the partner subunit can reach.

The next assay deals with T2, IKZF1 (Homo sapiens, UniProt Q13422+Q96SW2).
T2 construct: expression levels of IKZF1 and IKZF3 proteins in MM.1S cells; host or cells: MM.1S cells
T2 sequence (Q13422 whole entry): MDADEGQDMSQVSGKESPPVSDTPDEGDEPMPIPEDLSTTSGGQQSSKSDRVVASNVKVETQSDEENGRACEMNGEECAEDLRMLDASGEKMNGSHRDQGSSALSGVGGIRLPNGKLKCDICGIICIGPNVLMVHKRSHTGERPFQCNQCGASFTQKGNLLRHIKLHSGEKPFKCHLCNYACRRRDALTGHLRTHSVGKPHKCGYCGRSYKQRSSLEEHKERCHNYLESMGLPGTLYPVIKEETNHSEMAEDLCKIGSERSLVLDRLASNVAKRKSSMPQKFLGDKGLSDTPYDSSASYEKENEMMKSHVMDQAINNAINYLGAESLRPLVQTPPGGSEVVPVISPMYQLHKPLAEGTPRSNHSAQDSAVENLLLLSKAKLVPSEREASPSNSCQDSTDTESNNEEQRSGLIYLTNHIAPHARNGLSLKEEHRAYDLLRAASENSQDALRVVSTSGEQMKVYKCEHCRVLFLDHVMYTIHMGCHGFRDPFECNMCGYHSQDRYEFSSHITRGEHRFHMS
T2 sequence (Q96SW2 whole entry): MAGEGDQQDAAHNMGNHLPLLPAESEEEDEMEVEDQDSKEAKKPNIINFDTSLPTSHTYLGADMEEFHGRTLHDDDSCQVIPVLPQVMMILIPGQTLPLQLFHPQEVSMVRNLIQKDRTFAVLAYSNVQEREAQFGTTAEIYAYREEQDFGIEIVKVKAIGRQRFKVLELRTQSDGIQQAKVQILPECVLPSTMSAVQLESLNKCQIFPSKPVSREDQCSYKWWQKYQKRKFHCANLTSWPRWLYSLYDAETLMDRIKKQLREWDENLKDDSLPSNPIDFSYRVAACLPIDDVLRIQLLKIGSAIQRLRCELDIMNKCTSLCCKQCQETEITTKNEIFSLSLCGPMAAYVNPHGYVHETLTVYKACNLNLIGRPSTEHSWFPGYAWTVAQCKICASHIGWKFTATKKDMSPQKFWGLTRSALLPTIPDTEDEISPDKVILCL
T2 sequence (Q16531 whole entry partner): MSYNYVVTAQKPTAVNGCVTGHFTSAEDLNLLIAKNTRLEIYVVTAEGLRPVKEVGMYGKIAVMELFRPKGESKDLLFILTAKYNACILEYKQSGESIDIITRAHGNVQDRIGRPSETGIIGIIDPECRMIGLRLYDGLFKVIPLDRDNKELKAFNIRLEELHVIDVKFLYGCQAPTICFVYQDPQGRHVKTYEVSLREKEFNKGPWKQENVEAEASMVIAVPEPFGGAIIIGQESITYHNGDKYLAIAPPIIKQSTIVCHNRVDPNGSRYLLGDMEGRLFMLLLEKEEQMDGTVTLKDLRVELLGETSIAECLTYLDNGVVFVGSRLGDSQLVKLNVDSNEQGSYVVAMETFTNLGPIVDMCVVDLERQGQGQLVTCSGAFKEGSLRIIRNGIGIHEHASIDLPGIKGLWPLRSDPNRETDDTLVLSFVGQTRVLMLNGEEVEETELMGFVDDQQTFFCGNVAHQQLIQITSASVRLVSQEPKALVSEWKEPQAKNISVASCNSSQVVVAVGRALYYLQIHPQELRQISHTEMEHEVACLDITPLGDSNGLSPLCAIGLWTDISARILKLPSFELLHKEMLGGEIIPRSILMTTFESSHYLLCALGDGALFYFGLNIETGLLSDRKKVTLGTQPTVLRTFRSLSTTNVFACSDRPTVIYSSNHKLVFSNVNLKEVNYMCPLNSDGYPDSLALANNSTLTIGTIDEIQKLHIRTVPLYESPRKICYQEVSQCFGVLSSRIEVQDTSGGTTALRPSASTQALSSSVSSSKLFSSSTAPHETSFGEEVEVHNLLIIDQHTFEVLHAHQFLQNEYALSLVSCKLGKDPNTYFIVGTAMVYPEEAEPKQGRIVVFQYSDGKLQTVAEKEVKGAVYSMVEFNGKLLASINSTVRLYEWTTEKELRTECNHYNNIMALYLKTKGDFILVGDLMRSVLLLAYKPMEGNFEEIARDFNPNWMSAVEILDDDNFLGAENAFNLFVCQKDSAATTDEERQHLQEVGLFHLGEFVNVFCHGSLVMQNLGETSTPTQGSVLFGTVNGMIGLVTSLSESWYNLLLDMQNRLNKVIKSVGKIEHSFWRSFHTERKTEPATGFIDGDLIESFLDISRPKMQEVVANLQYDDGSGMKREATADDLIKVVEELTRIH
Kind of assay: In cell western analysis of IKZF1 protein expression level in MM.1S cells. The following applies: IKZF 1, MM.1S cells, 24 hours. On the procedure:
(§1) Objective: The experiment was conducted to evaluate the degradation effects of test compounds on IKZF1 and IKZF3 proteins in MM.1S cells by detecting their impact on the expression levels of IKZF1 and IKZF3 proteins in MM.1S cells.
(§2) Cell line: MM.1S cell (obtained from ATCC; Cat. No. CRL-2974)
(§3) Negative control: 0.1% DMSO Table 4. Reagents and consumables
(§4) Experimental scheme: • 1) MM.1S cells in the logarithmic growth phase were seeded into a 96-well plate at 1.2 × 10^5 cells per well and cultured overnight. • 2) On the second day, drug treatment was initiated with a starting concentration of 300 nM, followed by a 3-fold dilution in triplicate wells, with 10 concentration gradients (containing DMSO), and incubated for 24 hours in a culture incubator. • 3) The mixture was centrifuged, and the cell supernatant was carefully removed. […]
(§5) GraphPad Prism 6 software was utilized to fit the curve with the inhibition rate data, and the DC50 value was calculated.

A further assay has as its target T3, IKZF3 (Homo sapiens, UniProt Q96SW2+Q9UKT9).
T3 construct: expression levels of IKZF1 and IKZF3 proteins in MM.1S cells; host or cells: MM.1S cells
Nature of the assay: In cell western analysis of IKZF3 protein expression level in MM.1S cells. The following applies: IKZF3, MM.1S cells, 24 hours. On the procedure: as §1, §2, §3, §4, §5

Structures are written as SMILES. Structures can show the parent of a compound that is named as a salt.

T3 sequence (Q9UKT9 whole entry): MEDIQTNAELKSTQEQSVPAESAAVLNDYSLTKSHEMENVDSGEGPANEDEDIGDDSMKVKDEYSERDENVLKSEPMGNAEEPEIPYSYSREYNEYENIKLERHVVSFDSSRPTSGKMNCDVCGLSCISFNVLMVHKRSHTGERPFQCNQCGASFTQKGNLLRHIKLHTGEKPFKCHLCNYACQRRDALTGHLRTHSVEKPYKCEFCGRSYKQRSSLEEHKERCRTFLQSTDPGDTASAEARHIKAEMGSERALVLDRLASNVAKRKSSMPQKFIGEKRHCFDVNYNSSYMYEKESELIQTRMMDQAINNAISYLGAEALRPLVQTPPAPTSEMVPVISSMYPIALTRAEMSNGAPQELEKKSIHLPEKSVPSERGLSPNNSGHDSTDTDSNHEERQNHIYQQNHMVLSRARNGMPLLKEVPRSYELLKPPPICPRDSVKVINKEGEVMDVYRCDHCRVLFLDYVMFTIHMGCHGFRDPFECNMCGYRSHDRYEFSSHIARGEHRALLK
T3 sequence (Q96SW2 whole entry): as the sequence (Q96SW2 whole entry) above
T3 sequence (Q16531 whole entry partner): as the sequence (Q16531 whole entry partner) above

Consider `O=C1CCC(c2noc3ccc4c(NC(=O)CN5CCN(C[C@H]6CC[C@H](n7cc(NC(=O)c8coc(-c9ccnc(NCC%10CC%10)c9)n8)c(C(F)F)n7)CC6)CC5)cccc4c23)C(=O)N1` (stereo partly drawn) [Hydrochloride of Compound of Formula (I)], for which the DC50 on IRAK4 was found to be 4.87 nM; at IKZF1, 23.4 nM; at IKZF3, 20.6 nM.
